# According to patent US11033559B2, “Leukocyte infiltration promoting agent and antitumor immunostimulatory agent” (OSAKA UNIVERSITY, priority 2015, dated 2021):
# How the values were obtained:
# Type in all cases: in vivo
# [1] = test system: tumor blood vessels in Lewis lung cancer (LLC) tumor-bearing mice; experiment: Structural changes in tumor blood vessels (anti-CD31 immunostaining) after administration of LPA or LPA derivative; details: 3 mg/kg intraperitoneally once daily for five days, tumors harvested at 6 days, anti-CD31 staining
# Method: LPA or an LPA derivative was administered to tumor-bearing mice generated by subcutaneous inoculation of a mouse cancer cell line, and post-administration structural changes in tumor blood vessels were examined.
# Lewis lung cancer cells (hereinafter called LLC cells) were used as the mouse cancer cell line. LLC cells (1×10^6 cells in 100 μL PBS per animal) were subcutaneously injected into C57BL/6 NCrSlc mice aged 8 weeks (females, SLC, Inc.).
# The LPA used was 18:1 LPA (Avanti Polar Lipids, Inc.). The LPA derivative used was VPC31144S (N-{(1S)-2-hydroxy-1-[(phosphonooxy)methyl]ethyl} (9Z) octade c-9-enamide). A 10 mM LPA stock solution and a 10 mM VPC31144S stock solution were separately prepared using 50% ethanol and stored at −30° C. Before use, each of the frozen stock solutions was thawed and homogenized with an ultrasonic cleaner (SND Co., Ltd.) for 1 minute. The solution was diluted in PBS to an appropriate concentration for administration at a dose of 3 mg/kg in 100 μL PBS.
# On day 9 post-inoculation, LLC-bearing mice that had developed a tumor with a volume of 60 to 80 mm^3 (volume=length×width×height×0.5) were selected and subjected to the experiment. The mice were assigned to three groups: a control group, an LPA group and a VPC31144S group. Each group consisted of three mice. […]
# [2] = test system: LLC cells; experiment: Tumor growth inhibition, subcutaneous tumor formed from LLC cells; details: LLC-bearing mice; LPA 3 mg/kg i.p. once daily for seven days; 5-FU 100 mg/kg i.p. once weekly, 2 times
# Method: LLC cells (1×10^6 cells in 100 μL PBS per animal) were subcutaneously injected into C57BL/6 NCrSlc mice aged 8 weeks (females) in the same manner as in Reference Example 1. An LPA solution for administration was prepared in the same manner as in Reference Example 1. 5-FU (Kyowa Hakko Kirin Co., Ltd.) was used as an anticancer drug. 5-FU was prepared as a solution in physiological saline (Otsuka Pharmaceutical Co., Ltd.). On day 7 post-inoculation, LLC-bearing mice that had developed a tumor with a volume of 30 to 50 mm^3 were selected and subjected to the experiment. The mice were assigned to three groups: a control group, a 5-FU group and an LPA group (n=3 per group). After grouping, LPA (3 mg/kg/100 μL), 5-FU (100 mg/kg/100 μL) or PBS (100 μL) was intraperitoneally administered to the mice. The administration of LPA or PBS was performed once daily for consecutive seven days. The administration of 5-FU was performed once weekly, 2 times in total (day 7 and day 14 post-inoculation). Tumor size was measured over time after the start of the administration. Tumor volume was calculated by the following formula: length×width×height×0.5.
# [3] = test system: LLC tumor in mice; experiment: Changes in localization of immune cells in tumor (CD31, CD4, CD8 immunostaining); details: tumor sections of Reference Example 1, LLC-bearing mice, 3 mg/kg i.p. for five days
# Method: LPA was administered to tumor-bearing mice generated by subcutaneous inoculation of a mouse cancer cell line, and changes in the localization of immune cells in the tumor were examined.
# The tumor sections prepared in Reference Example 1 were immunostained with an anti-CD4 antibody and an anti-CD8 antibody. As a primary antibody, Purified Hamster Anti-PECAM-1 Antibody (Millipore), which is an anti-mouse CD31 antibody, PE-labeled Anti-mouse CD4 Antibody (Pharmingen) or FITC-labeled Anti-mouse CD8 Antibody (Pharmingen) was used. As a secondary antibody, Alexa Fluor 647-conjugated Anti-Armenian Hamster IgG was used. The immunostaining was performed in the same procedure as in Reference Example 1. The immunostained sections were observed and photographed under a confocal laser microscope (Leica).
substance,measurement,setting,value
lysophosphatidic acid [LPA],network structure of tumor blood vessels,[1],continuous network structure of blood vessels
same,inhibition of tumor growth (tumor volume) versus control group,[2],"albeit to a slightly lesser extent, the LPA group also showed inhibition of tumor growth"
same,continuity of tumor blood vessels (anti-CD31 staining),[3],blood vessels were continuous
same,localization of CD4-positive cells in the tumor,[3],CD4-positive cells were present even in the central part of the tumor
same,localization of CD8-positive cells in the tumor,[3],CD8-positive cells were present in the whole tumor region
